Values joined by “and” are separate entries in the source; they are usually repeats but may differ in a detail not shown here. Equal entries are not always repeated. Structures can show the parent of a compound that is named as a salt. Where two headings read alike, the source gives them in different places.
Key:
[1] = test system: GR activation in 293/PRLR/GRE-Luc cells (HEK293/9xUAS-Luc2P/pBind-GR/PRLR-HA high cells); assay: GR co-activator luciferase reporter cell based assay in 293/PRLR/GRE-Luc cells; design: species or system human
In short: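 HEK293 cells stably expressing PRLR, a Gal4–GR LBD chimera and a 9×Gal4UAS-Luc2P reporter were seeded at 20,000 per well and treated with free steroid or anti-PRLR steroid ADC. Luciferase (One-Glo) was read as RLU, and EC50 was fitted by four-parameter logistic over 10 points. Minimal activation means under 10% of free-payload maximum.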

[2] = test system: GR activation in 293/GRE-Luc cells (293_PBind GR/UAS-Luc); assay: Luciferase reporter assay in antigen negative 293/GRE-Luc cells; type: cell-based, human
[3] = Pharmacokinetics of 4b and 6-I in mice (blood concentration-time); type: in vivo, C57BL/6j mice
[4] = test system: LPS-induced cytokine release (TNF-α); assay: Mouse model of LPS induced cytokine release (TNF-α in plasma); type: in vivo, C57BL/6j mice; conditions: for Inhibition of TNF-α production: 5 mpk ip before LPS challenge, plasma at 2 hr time point; for TNF-a: plasma 2 hr post LPS challenge, 5MPK ip (−2 h) prior to LPS, individual mice
CD11c+ splenic DCs = assay: Ex vivo LPS-induced cytokine production in mouse splenic CD11c+ dendritic cells; type: cell-based, C57Bl/6 mice; design: TNF-a / IL-12p70 / IL-1b / IL-6 / KC-GRO: unit not given here; conditions: for LPS-induced cytokine responses in CD11c+ DCs: 10 nM and 100 nM for 24 hours before LPS 10 ng/mL
Protocol: (§1) Supernatants were collected into 96-well round bottom tissue culture plates 24 hours post-LPS challenge and stored at −20° C. until further analysis. Cytokine concentrations in the supernatants were measured using a Pro-inflammatory Panel 1 (mouse) multiplex immunoassay kit (MesoScale Discovery, Cat #K15048D) according to manufacturer's instructions or Pro-inflammatory Panel 1 (human) multiplex immunoassay kit (MesoScale Discovery, Cat #K15049D). In brief, 50 μL/well of calibrators and samples (diluted in Diluent 1:2) were added to the plates pre-coated with capture antibodies and incubated at room temperature while shaking at 700 rpm for 2 hours. The plates were then washed 3 times with 1×PBS containing 0.05% (w/v) Tween-20, followed by the addition of 25 μL of Detection Antibody Solution diluted in Diluent 45. After 2-hour incubation at room temperature while shaking, the plates were washed 3 times, and 150 μL of 2× Read Buffer was added to each well. Electrochemiluminescence was immediately read on a MSD Spector® instrument. Data analysis was performed using GraphPad Prism™ software. Statistical significance within the groups was determined by one-way Anova with Turkey's multiple comparison post-test and standard error of mean (SEM±) calculated.

[5] = test system: human monocyte derived-DC; assay: Ex vivo LPS-induced cytokine production in human monocyte derived DCs; type: cell-based; design: IL-6 / IL-8 / TNF-a / IL-12p70 / IL-1b: unit not given here; conditions: for Pro-inflammatory cytokine production: Condition 1: entire 7-day conditioning period; for Production of IL12p70, IL6 and TNF-α: Condition 2: conditioning of mature monocyte-derived DCs
Protocol: The complete-RPMI with IL4 and GM-CSF was changed every three days. […]
as §1

[6] = male, C57BL/6, mouse, in vivo, ip, 1 mg/kg
[7] = IP, 1 mg/Kg in male C57BL/6 mice, Mean

## CCCC1O[C@@H]2C[C@H]3[C@@H]4C[C@H](F)C5=CC(=O)C=C[C@]5(C)[C@@]4(F)[C@@H](O)C[C@]3(C)[C@]2(C(=O)CN)O1 (stereo partly drawn) [Compound 4b, (1S,2S,4R,6R,8S,9S,11S,12R,13S,19S)-8-(2-Aminoacetyl)-12,19-difluoro-11-hydroxy-9,13-dimethyl-6-propyl-5,7-dioxapentacyclo[10.8.0.0^2,90.0^4,80.0^13,18]icosa-14,17-dien-16-one; trifluoroacetic Acid Salt]
[1]; 293/PRLR/GRE-Luc cells, 72 hours
  EC50 of GRE-Luc activation: better IC50 value than Budesonide and Dexamethasone
[1]; Homo sapiens, HEK293, read-out: EC50 in 293/PRLR/GRE-Luc (M), 72 hrs of incubation
  EC50: < 5e-09 M
[1]; Homo sapiens, HEK293, read-out: HEK293/9xUAS-Luc2P/pBind-GR/PRLR-HA high cells EC50
  EC50: < 1e-08 M
[1]; fold activation vs Budesonide
  HEK293/9xUAS-Luc2P/pBind-GR/PRLR-HA high cells activation relative to Budesonide: Full
[2]; Homo sapiens, 72 h, read-out: EC50 in 293/GRE-Luc (M)
  EC50: < 5e-09 M
[3]; [6]
  AUC(0-inf): 0.0892 µg·h/mL
  AUC(0-t): 0.0846 µg·h/mL
  Cmax: 0.0394 µg/mL
[3]; mouse, in vivo, IP, 1 mg/Kg in male C57BL/6 mice, Mean, read-out: Terminal t1/2 (converted)
  half-life: 1.69 h
[4]
  Inhibition of TNF-α production: significantly inhibited TNF-α production
[4]; trifluoroacetic Acid Salt
  TNF-a: 56.5 pg/mL and 10.4 pg/mL and 274.8 pg/mL
CD11c+ splenic DCs; 10 nM + LPS
  IL-1b: 6.32 ± 0.83
  IL-6: 184.54 ± 21.59
  IL-12p70: 3.84 ± 2.88
  KC-GRO: 186.57 ± 15.71
  TNF-a: 146.46 ± 18.66
CD11c+ splenic DCs
  LPS-induced cytokine responses in CD11c+ DCs: significantly decreased LPS-induced cytokine responses
CD11c+ splenic DCs; 10 nM, no LPS
  IL-1b: 5.22 ± 0.11
  IL-6: 47.90 ± 4.55
  IL-12p70: 5.24 ± 1.12
  KC-GRO: 62.85 ± 6.51
  TNF-a: 0 ± 0
CD11c+ splenic DCs; 100 nM + LPS
  IL-1b: 4.80 ± 0.99
  IL-6: 201.10 ± 20.96
  IL-12p70: 8.21 ± 2.79
  KC-GRO: 211.96 ± 25.23
  TNF-a: 193.29 ± 25.56
CD11c+ splenic DCs; 100 nM, no LPS
  IL-1b: 5.65 ± 0.18
  IL-6: 63.87 ± 4.78
  IL-12p70: 6.43 ± 0.67
  KC-GRO: 84.30 ± 6.06
  TNF-a: 0 ± 0
[5]
  Pro-inflammatory cytokine production: significantly reduced pro-inflammatory cytokine production
  Production of IL12p70, IL6 and TNF-α: significantly decreased the production of IL12p70, IL6 and TNF-α
[5]; Condition 1, 10 nM + LPS
  IL-1b: 1.18 ± 0.11
  IL-6: 325.46 ± 2.12
  IL-8: 8670.27 ± 268.97
  IL-12p70: 1.05 ± 0.08
  TNF-a: 117.75 ± 6.63
[5]; Condition 1, 10 nM, no LPS
  IL-1b: 0.61 ± 0.007
  IL-6: 2.23 ± 0.002
  IL-8: 166.99 ± 2.01
  IL-12p70: 0.58 ± 0.002
  TNF-a: 1.28 ± 0.087
[5]; Condition 1, 100 nM + LPS
  IL-1b: 1.01 ± 0.07
  IL-6: 159.32 ± 7.31
  IL-8: 8461.59 ± 522.77
  IL-12p70: 0.50 ± 0.19
  TNF-a: 123.31 ± 0.11
[5]; Condition 1, 100 nM, no LPS
  IL-1b: 0.641 ± 0.15
  IL-6: 3.45 ± 0.13
  IL-8: 136.50 ± 0.87
  IL-12p70: 0.66 ± 0.03
  TNF-a: 1.46 ± 0.10
[5]; Condition 2, 10 nM + LPS
  IL-1b: 30.10 ± 0.93
  IL-6: 5124.75 ± 114.8
  IL-8: 3003.52 ± 212.16
  IL-12p70: 4.81 ± 0.63
  TNF-a: 874.18 ± 30.46
[5]; Condition 2, 10 nM, no LPS
  IL-1b: 0.59 ± 0.005
  IL-6: 12.87 ± 0.312
  IL-8: 274.75 ± 1.75
  IL-12p70: 0.60 ± 0.01
  TNF-a: 2.03 ± 0.14
[5]; Condition 2, 100 nM + LPS
  IL-1b: 18.20 ± 1.04
  IL-6: 4680.03 ± 104.90
  IL-8: 2735.36 ± 87.88
  IL-12p70: 2.03 ± 0.16
  TNF-a: 696.26 ± 75.10
[5]; Condition 2, 100 nM, no LPS
  IL-1b: 0.59 ± 0.03
  IL-6: 11.25 ± 0.82
  IL-8: 317.46 ± 14.83
  IL-12p70: 0.61 ± 0.02
  TNF-a: 1.37 ± 0.251

## C[C@@H]1C[C@H]2[C@@H]3CCC4=CC(=O)C=C[C@]4(C)[C@@]3(F)[C@@H](O)C[C@]2(C)[C@@]1(O)C(=O)CO [Dexamethasone, dexamethasone, reference compound]
[1]; read-out: EC50 in 293/PRLR/GRE-Luc, 72 hrs of incubation
  EC50: < 5e-09 M
[2]; read-out: EC50 in 293/GRE-Luc, 72 hrs of incubation, antigen negative cells
  EC50: < 5e-09 M
[3]; [7]
  AUCINF: 0.562 µg·h/mL
  AUClast: 0.545 µg·h/mL
  Cmax: 0.231 µg/mL
[4]
  Inhibition of TNF-α production: significantly inhibit TNF-α
[4]; listed as DEX
  TNF-a: 644.3 pg/mL and 508.5 pg/mL and 487.1 pg/mL
CD11c+ splenic DCs; 10 nM + LPS
  IL-1b: 34.76 ± 4.33
  IL-6: 714.89 ± 77.13
  IL-12p70: 30.41 ± 3.22
  KC-GRO: 399.40 ± 49.75
  TNF-a: 2496.27 ± 415.75
CD11c+ splenic DCs
  LPS-induced cytokine responses in CD11c+ DCs: significantly decreased LPS-induced cytokine responses
CD11c+ splenic DCs; 10 nM, no LPS
  IL-1b: 6.299 ± 0.33
  IL-6: 98.93 ± 8.98
  IL-12p70: 8.55 ± 1.08
  KC-GRO: 75.75 ± 8.03
  TNF-a: 0 ± 0
CD11c+ splenic DCs; 100 nM + LPS
  IL-1b: 10.58 ± 0.88
  IL-6: 303.48 ± 11.37
  IL-12p70: 9.29 ± 3.28
  KC-GRO: 233.49 ± 18.48
  TNF-a: 405.49 ± 70.23
CD11c+ splenic DCs; 100 nM, no LPS
  IL-1b: 5.25 ± 0.12
  IL-6: 55.07 ± 1.76
  IL-12p70: 6.05 ± 1.13
  KC-GRO: 65.99 ± 2.75
  TNF-a: 0 ± 0
[5]
  IL-1b: 0.625 ± 0.006
  Pro-inflammatory cytokine production: significantly reduced pro-inflammatory cytokine production
  Production of IL12p70, IL6 and TNF-α: significantly decreased the production of IL12p70, IL6 and TNF-α
[5]; Condition 1, 10 nM + LPS
  IL-1b: 1.77 ± 0.11
  IL-6: 687.45 ± 2.17
  IL-8: 8789.98 ± 126.98
  IL-12p70: 4.83 ± 0.05
  TNF-a: 242.34 ± 10.75
[5]; Condition 1, 10 nM, no LPS
  IL-6: 2.68 ± 0.03
  IL-8: 174.59 ± 0.68
  IL-12p70: 0.65 ± 0.02
  TNF-a: 2.32 ± 0.098
[5]; Condition 2, 10 nM + LPS
  IL-1b: 37.88 ± 1.90
  IL-6: 5747.37 ± 234.08
  IL-8: 3314.0 ± 37.86
  IL-12p70: 6.32 ± 1.69
  TNF-a: 994.92 ± 73.66
[5]; Condition 2, 10 nM, no LPS
  IL-1b: 0.611 ± 0.003
  IL-6: 14.76 ± 0.267
  IL-8: 288.23 ± 6.02
  IL-12p70: 0.64 ± 0.03
  TNF-a: 1.73 ± 0.02

— patent publication US11760775B2, “Steroids and protein-conjugates thereof” (Regeneron Pharmaceuticals, Inc., priority 2016, dated 2023)
